Test system: 922993-354-T-J3-PDC complex spheroids, viability, % test/control
Assay: Anticancer human tumor 922993-354-T-J3-PDC patient-derived endometrial carcinoma cell line growth inhibition [CLK]
Details: for IC50: curve of first compound; for viability, T/C: stronger effect = lower value
In short: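 Patient-derived tumor cells grown as complex spheroids with HUVEC endothelial cells and mesenchymal stem cells, treated with drug combinations. Concentrations descend in half-log steps from near clinical Cmax, or from 10 microM if Cmax unknown.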

[1] = second compound 0.0316 µM, first compound 0.00316 µM
[2] = second compound 0.0316 µM, first compound 0.01 µM
[3] = second compound 0.0316 µM, first compound 0.0316 µM
[4] = second compound 0.0316 µM, first compound 0.1 µM
[5] = second compound 0.1 µM, first compound 0.00316 µM
[6] = second compound 0.1 µM, first compound 0.01 µM
[7] = second compound 0.1 µM, first compound 0.0316 µM
[8] = second compound 0.1 µM, first compound 0.1 µM
[9] = second compound 0.316 µM, first compound 0.00316 µM
[10] = second compound 0.316 µM, first compound 0.01 µM
[11] = second compound 0.316 µM, first compound 0.0316 µM
[12] = second compound 0.316 µM, first compound 0.1 µM
[13] = second compound 1 µM, first compound 0.00316 µM
[14] = second compound 1 µM, first compound 0.01 µM
[15] = second compound 1 µM, first compound 0.0316 µM
[16] = second compound 1 µM, first compound 0.1 µM
[17] = second compound 3.16 µM, first compound 0.00316 µM
[18] = second compound 3.16 µM, first compound 0.01 µM
[19] = second compound 3.16 µM, first compound 0.0316 µM
[20] = second compound 3.16 µM, first compound 0.1 µM
[21] = second compound 10 µM, first compound 0.00316 µM
[22] = second compound 10 µM, first compound 0.01 µM
[23] = second compound 10 µM, first compound 0.0316 µM
[24] = second compound 10 µM, first compound 0.1 µM
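Note: spheroids exposed to the agents for 7 days before readout.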

With `CCc1c2c(nc3ccc(O)cc13)-c1cc3c(c(=O)n1C2)COC(=O)[C@]3(O)CC` + CN1CCN(c2cc(C(=O)Nc3cc4cc(-c5cnn(C)c5)ccc4cn3)ccn2)CC1 the IC50 (second compound 0.0316 µM) was 16.6 nM, the IC50 (second compound 0.1 µM) was 15.2 nM and the IC50 (second compound 0.316 µM) was < 3.16 nM. For the same molecule, the IC50 (second compound 1 µM) was < 3.16 nM, the IC50 (second compound 3.16 µM) was < 3.16 nM and the IC50 (second compound 10 µM) was < 3.16 nM. The viability, T/C [1] was 96.4%, the viability, T/C [2] was 75.1% and the viability, T/C [3] was 16.3%. It also gave a viability, T/C [4] of 16.1%, a viability, T/C (second compound 0.0316 µM, first compound 0.316 µM) of 16.8% and a viability, T/C (second compound 0.0316 µM, first compound 1 µM) of 24.9%. It also gave a viability, T/C [5] of 84.3%, a viability, T/C [6] of 66.9% and a viability, T/C [7] of 14.1%. For the same molecule, the viability, T/C [8] was 18.8%, the viability, T/C (second compound 0.1 µM, first compound 0.316 µM) was 16.2% and the viability, T/C (second compound 0.1 µM, first compound 1 µM) was 32.3%. It also gave a viability, T/C [9] of 27.2%, a viability, T/C [10] of 19.2% and a viability, T/C [11] of 9.9%. The viability, T/C [12] was 9.85%, the viability, T/C (second compound 0.316 µM, first compound 0.316 µM) was 18.8% and the viability, T/C (second compound 0.316 µM, first compound 1 µM) was 15.8%. It also gave a viability, T/C [13] of 0.1%, a viability, T/C [14] of 0.13% and a viability, T/C [15] of 1.37%. For the same molecule, the viability, T/C [16] was 0.07%, the viability, T/C (second compound 1 µM, first compound 0.316 µM) was 0.87% and the viability, T/C (second compound 1 µM, first compound 1 µM) was 0.33%. The viability, T/C [17] was 0.08%, the viability, T/C [18] was 0.17% and the viability, T/C [19] was 0.99%. It also gave a viability, T/C [20] of 1.34%, a viability, T/C (second compound 3.16 µM, first compound 0.316 µM) of 1% and a viability, T/C (second compound 3.16 µM, first compound 1 µM) of 2.82%. It also gave a viability, T/C [21] of 0.12%, a viability, T/C [22] of 0.14% and a viability, T/C [23] of 0.83%. It also gave a viability, T/C [24] of 0.18%, a viability, T/C (second compound 10 µM, first compound 0.316 µM) of 0.59% and a viability, T/C (second compound 10 µM, first compound 1 µM) of 2.79%.
For `Cn1ncnc1[C@H]1c2n[nH]c(=O)c3cc(F)cc(c23)N[C@@H]1c1ccc(F)cc1` + CN1CCN(c2cc(C(=O)Nc3cc4cc(-c5cnn(C)c5)ccc4cn3)ccn2)CC1, the IC50 (second compound 0.0316 µM) was > 100 nM, the IC50 (second compound 0.1 µM) was > 100 nM and the IC50 (second compound 0.316 µM) was < 0.316 nM. The IC50 (second compound 1 µM) was < 0.316 nM, the IC50 (second compound 3.16 µM) was < 0.316 nM and the IC50 (second compound 10 µM) was < 0.316 nM. The viability, T/C (second compound 0.0316 µM, first compound 0.000316 µM) was 126%, the viability, T/C (second compound 0.0316 µM, first compound 0.001 µM) was 121% and the viability, T/C [1] was 104%. For the same molecule, the viability, T/C [2] was 119%, the viability, T/C [3] was 119% and the viability, T/C [4] was 75.3%. For the same molecule, the viability, T/C (second compound 0.1 µM, first compound 0.000316 µM) was 110%, the viability, T/C (second compound 0.1 µM, first compound 0.001 µM) was 101% and the viability, T/C [5] was 102%. The viability, T/C [6] was 103%, the viability, T/C [7] was 116% and the viability, T/C [8] was 75.3%. It also gave a viability, T/C (second compound 0.316 µM, first compound 0.000316 µM) of 43.1%, a viability, T/C (second compound 0.316 µM, first compound 0.001 µM) of 35.2% and a viability, T/C [9] of 41.5%. For the same molecule, the viability, T/C [10] was 32.7%, the viability, T/C [11] was 35.6% and the viability, T/C [12] was 20.4%. For the same molecule, the viability, T/C (second compound 1 µM, first compound 0.000316 µM) was 0.13%, the viability, T/C (second compound 1 µM, first compound 0.001 µM) was 0.83% and the viability, T/C [13] was 0.12%. For the same molecule, the viability, T/C [14] was 0.32%, the viability, T/C [15] was 0.11% and the viability, T/C [16] was 0.89%. It also gave a viability, T/C (second compound 3.16 µM, first compound 0.000316 µM) of 0.12%, a viability, T/C (second compound 3.16 µM, first compound 0.001 µM) of 1.22% and a viability, T/C [17] of 0.35%. For the same molecule, the viability, T/C [18] was 0.07%, the viability, T/C [19] was 0.95% and the viability, T/C [20] was 1.3%. For the same molecule, the viability, T/C (second compound 10 µM, first compound 0.000316 µM) was 0.13%, the viability, T/C (second compound 10 µM, first compound 0.001 µM) was 0.16% and the viability, T/C [21] was 0.88%. It also gave a viability, T/C [22] of 0.13%, a viability, T/C [23] of 1.94% and a viability, T/C [24] of 2.55%.
